Target: Akt1 (Homo sapiens, UniProt P31749)
Assay: Akt1 in vitro kinase assay
Type: biochemical
Description: According to the kinase profiler assay results, Akt2 also might be a potential target of Compound 1. An Akt1 and Akt2 in vitro kinase assays was performed.

Akt1, sequence (P31749 whole entry, species assumed): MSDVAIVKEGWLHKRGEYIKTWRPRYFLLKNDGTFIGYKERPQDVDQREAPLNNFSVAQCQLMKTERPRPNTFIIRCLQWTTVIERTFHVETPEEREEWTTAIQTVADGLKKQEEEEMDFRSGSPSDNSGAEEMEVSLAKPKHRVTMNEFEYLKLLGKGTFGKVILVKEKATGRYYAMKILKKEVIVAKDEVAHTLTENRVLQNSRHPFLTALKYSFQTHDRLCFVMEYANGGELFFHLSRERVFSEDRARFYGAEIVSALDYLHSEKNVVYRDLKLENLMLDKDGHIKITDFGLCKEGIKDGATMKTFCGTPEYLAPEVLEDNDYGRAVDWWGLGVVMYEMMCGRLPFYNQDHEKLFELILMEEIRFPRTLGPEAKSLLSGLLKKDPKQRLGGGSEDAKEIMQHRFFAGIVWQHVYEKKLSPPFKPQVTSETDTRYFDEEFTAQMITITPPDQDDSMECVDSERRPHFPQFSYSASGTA

Compound: O=C(/C=C/c1ccc2c(c1)OCO2)/C=C1/C(=O)Nc2ccccc21 [Compound 1]
- inhibition at 5 µM (5 μM): 32%
- concentration inhibiting Akt1 kinase activity in vitro (discussion statement): ≥ 1 µM
